{"source": "patent US11542263B2", "about": "(NeuroCycle Therapeutics, Inc., priority 2018, dated 2023)", "assay": "Solubility in aqueous buffers and simulated fluids, 24 h, HPLC", "format": "physicochemical", "conditions": "for solubility at 24 h: 22.5 °C, thermodynamic from solid, read-out: Measured Conc. (solubility); for solubility at 24 h / Measured Conc. (solubility): ~24 h", "protocol": "About 2 mg of test article was added to a 1.5 mL vials which contained ˜1.0 mL of one medium listed in Table 7 and Table 8, which was then sealed. The mixtures were stirred at ˜20-25° C. for ˜24 hours. After that, the mixture was filtered by 0.45 μm filter membrane and then the supernatant was analyzed by HPLC.", "note": "Like-named read-outs stand apart in the source and are kept apart here."}
{"smiles": "CC(C)(O)c1cnn2c(-c3ccc(F)c(-c4c(F)cccc4C#N)c3)cnc2n1.O=P(O)(O)O", "note": "[Phosphate Polymorphic Form A, 2′,6-difluoro-5′-[3-(1-hydroxy-1-methylethyl)-imidazo[1,2-b][1,2,4]triazin-7-yl]biphenyl-2-carbonitrile]", "values": [{"measurement": "solubility at 24 h", "setting": "aqueous buffer, pH 3.0 citrate buffer (100 mM), initial pH 3.05, LOQ: 0.1 μg/mL", "result": 0.16, "unit": "µg/mL"}, {"measurement": "solubility at 24 h", "setting": "pH 1.8, simulated gastric fluid, SGF, initial pH 1.80, ~20-25° C.", "result": 3.85, "unit": "µg/mL"}, {"measurement": "solubility at 24 h", "setting": "simulated gastric fluid, pH 1.2 Hydrochloric Acid Buffer (50 mM), initial pH 1.17, ~20-25° C.", "result": 22.9, "unit": "µg/mL"}, {"measurement": "solubility at 24 h", "setting": "FaSSIF, initial pH 6.51, ~20-25° C.", "result": 7.14, "unit": "µg/mL"}, {"measurement": "solubility at 24 h", "setting": "FeSSIF, initial pH 5.00, ~20-25° C.", "result": 50.7, "unit": "µg/mL"}, {"measurement": "solubility at 24 h", "setting": "Purified water, initial pH 7.02, ~20-25° C., target 2 mg/mL", "result": 0.4, "unit": "µg/mL"}, {"measurement": "pH value of supernatant", "setting": "FaSSIF, initial pH 6.51", "result": 6.09}, {"measurement": "pH value of supernatant", "setting": "FeSSIF, initial pH 5.00", "result": 4.94}, {"measurement": "pH value of supernatant", "setting": "Purified water, initial pH 7.02", "result": 2.62}, {"measurement": "pH value of supernatant", "setting": "SGF, initial pH 1.80", "result": 1.67}, {"measurement": "solubility compared with Free Base Polymorphic Form A", "setting": "in SGF, FaSSIF and FeSSIF", "result": "higher solubility"}, {"measurement": "pH value of supernatant", "setting": "pH 1.2 Hydrochloric Acid Buffer (50 mM), initial pH 1.17", "result": 0.99}, {"measurement": "pH value of supernatant", "setting": "pH 3.0 citrate buffer (100 mM), initial pH 3.05", "result": 2.96}, {"measurement": "pH value of supernatant", "setting": "pH 4.5 citrate buffer (100 mM), initial pH 4.44", "result": 4.41}, {"measurement": "Measured Conc. (solubility)", "setting": "pH 4.5 citrate buffer (100 mM), initial pH 4.44, LOQ: 0.1 μg/mL", "result": "<LOQ"}, {"measurement": "pH value of supernatant", "setting": "pH 7.4 PBS (50 mM), initial pH 7.40", "result": 7.09}, {"measurement": "Measured Conc. (solubility)", "setting": "pH 7.4 PBS (50 mM), initial pH 7.40, LOQ: 0.1 μg/mL", "result": "<LOQ"}, {"measurement": "pH value of supernatant", "setting": "pH 9.0 USP Buffer (50 mM), initial pH 8.94", "result": 8.46}, {"measurement": "Measured Conc. (solubility)", "setting": "pH 9.0 USP Buffer (50 mM), initial pH 8.94, LOQ: 0.1 μg/mL", "result": "<LOQ"}]}
